Measured values reported in patent US10765732B2, “Compounds and methods for affecting cytokines” (Zivo Bioscience, Inc., priority 2013, dated 2020).

Key:
Format in all cases: cell-based, human
TNF-α = assay: ELISA of TNF-α secretion by cultured PBMC; settings: PMA (with ionomycin) alone
Description: (§1) According to this exemplary embodiment, phyto-percolate and the flow-through/F4 were tested as they appeared in their original concentrations right off the columns, only diluted 1:20 and 1:100 as described herein. The culture of peripheral blood mononuclear cells (“PBMC”) is prepared from two vials of frozen PBMCs that were obtained from normal healthy human subjects by a commercial vendor, and were added to 2×10 ml medium and centrifuged. PBMCs were resuspended and cultured in RPMI1640/5% FBS for 24 h. (1 vial of frozen cells in 11 ml medium).
(§2) Treatment agents for this exemplary method comprise three agents: unseparated phyto-percolate (‘PAZ’), fraction 3 (‘F3’), fraction 4 (‘F4’). Treatment concentration for each was 1:20 and 1:100. […]
(§3) According to this exemplary embodiment, seeding, treatment, and detection are accomplished by the following steps. Two dishes of PBMCs were combined and the small amount of PBMCs was stained with 0.4% Trypan blue and the cell number of PBMCs was counted using known techniques.
(§4) In this embodiment, an enzyme linked immune-sorbent assay (“ELISA”) analysis of inflammatory cytokine secretion, (a protocol provided in a commercial kit for the parallel quantification of the production of human cytokines), was employed. […]

IFN-γ = assay: ELISA of IFN-γ secretion by cultured PBMC; settings: PMA (with ionomycin) alone
Description: as §1, §2, §3, §4

GM-CSF = assay: ELISA of GM-CSF secretion by cultured PBMC; settings: PMA (with ionomycin) alone
Description: as §1, §2, §3, §4

IL-2 = assay: ELISA of IL-2 secretion by cultured PBMC; settings: PMA (with ionomycin) alone
Description: as §1, §2, §3, §4

IL-17A = assay: ELISA of IL-17A secretion by cultured PBMC; settings: PMA (with ionomycin) alone
Description: as §1, §2, §3, §4

NF-κB = assay: Electrophoretic mobility shift assay (EMSA) of NF-κB DNA-binding activity in nuclear protein of cultured PBMC; settings: TNF-α (50 ng/ml) added alone 1 h before harvesting, untreated control = 1.0
Description: as §1
Treatment agents for this exemplary method comprise three agents: unseparated phyto-percolate (‘PAZ’), fraction 3 (‘F3’), fraction 4 (‘F4’). Treatment concentration for each was 1:20 and 1:100. An exemplary sample preparation method for each agent by dilution is as follows: First, a 1:10 dilution is prepared by combining 0.7 ml agent (PAZ, F3, or F4)+6.3 ml RPMI1640/5% FBS to obtain a total volume of 7 ml of a 1:10 solution. […]
Analysis of the effect of phyto-percolate or fractions isolated therefrom on the DNA-binding activity of NF-κB in the nuclear protein fractions of the cultured PBMC was determined as follows in this exemplary embodiment: approximately 18.26 mL of suspended PBMC were added to approximately 18 mL of culture medium and 2 mL of this cell suspension (2,718,000 cells in 2 mL) were seeded into each 60 mm culture dish. […]

| Compound | production and secretion of TNF-α (TNF-α) | IFN-γ secreted (IFN-γ) | production and secretion of GM-CSF (GM-CSF) | quantity of IL-2 produced (IL-2) | production and secretion of IL-17A (IL-17A) | DNA-binding activity of NF-κB (relative level) (NF-κB) [relative unit] |
| --- | --- | --- | --- | --- | --- | --- |
| CCCCCCCCCCCCCC(=O)O[C@@H]1[C@@H](C)[C@@]2(O)[C@@H](C=C(CO)C[C@]3(O)C(=O)C(C)=C[C@@H]23)[C@@H]2C(C)(C)[C@]12OC(C)=O [PMA, phorbol myristate acetate] | approximately 50 pg/100,000 cells | approximately 70 pg/100,000 cells | approximately 50 pg/100,000 cells | approximately 125 pg/100,000 cells | approximately 3 pg/100,000 cells | – |
| TNF-α | – | – | – | – | – | ~2.0 |
